The values that follow come from ChEMBL document CHEMBL5385961, “In vitro and in vivo evaluation of novel chromeno[2,3-d]pyrimidinones as therapeutic agents for triple negative breast cancer” (RSC Med Chem, 2024).

Series [1] has as its system Hs-578T. Put plainly: Cytotoxicity against human Hs-578T cells assessed as inhibition of cell growth incubated for 72 hrs by SRB assay. Type of series: functional, cell-based.
Series [2] is described as follows: Cytotoxicity against human MCF-10A cells assessed as inhibition of cell growth incubated for 72 hrs by SRB assay. Type of series: toxicity, cell-based. For orientation: In SRB staining, fixed cells bind dye roughly in proportion to their protein.
For series [3], the species on record is Homo sapiens. In words: Selectivity index, ratio of IC50 for human MCF-10A cells to IC50 for human Hs-578T cells.
Series [4] deals with Hs-578T. Put plainly: Cytotoxicity against human Hs-578T cells assessed as reduction in cell proliferation at 0.5 times IC50 measured after 48 hrs by BrdU incorporation assay relative to control. Type of series: functional. The arrangement: scale not given: the % may be the effect or the level left. (Dividing cells build labelled thymidine or BrdU into new DNA.)
Series [5] concerns Hs-578T. In words: Induction of apoptosis in human Hs-578T cells assessed as increase in caspase-8 protein expression at IC50 measured after 48 hrs by Western blot analysis. Format: functional, cell-based.
In series [6] the test system is Hs-578T. Put plainly: Antitumor activity against human Hs-578T cells implanted in chick eggs assessed as tumor growth regression at 2 times IC50 administered starting from day 13 and measured 17 days post embryo development by stereomicroscopic analysis. Format: functional, cell-based. The following applies: time 5.0 day.
The test system of series [7] is Hs-578T. In words: Antitumor activity against human Hs-578T cells implanted in chick eggs assessed as regression in tumors' perimeter at 2 times IC50 administered starting from day 13 and measured 17 days post embryo development by stereomicroscopic analysis relative to control. Format: functional. Conditions: time 5 day.
A short description of series [8]: Toxicity in wild type C57BL/6J mouse assessed as effect on body temperature at 10 to 50 mg/kg, ip administered daily for 7 days. Conditions: in vivo, 168 h, dose 10-50 mg/kg, time 7 day. Format: organism-based.
A short description of series [9]: Toxicity in wild type C57BL/6J mouse assessed as mean food intake at 50 mg/kg, ip administered daily for 7 days. Format: organism-based. The following applies: in vivo, 168 h, time 7 day.
Series [10] can be described thus: Toxicity in wild type C57BL/6J mouse assessed as effect on bolus fecalis count at 10 to 50 mg/kg, ip administered daily for 7 days and measured daily. Type of series: organism-based. The following applies: in vivo, 168 h, dose 10-50 mg/kg, time 7 day.
Series [11] is described as follows: Toxicity in wild type C57BL/6J mouse assessed as transfer to reaction at 10 to 50 mg/kg, ip administered daily for 7 days and measured daily. Type of series: organism-based. The following applies: in vivo, 168 h, dose 10-50 mg/kg, time 7 day.
Series [12] is described as follows: Toxicity in wild type C57BL/6J mouse assessed as effect on body position at 10 to 50 mg/kg, ip administered daily for 7 days and measured daily. Type of series: organism-based. The following applies: in vivo, 168 h, dose 10-50 mg/kg, time 7 day.
A short description of series [13]: Toxicity in wild type C57BL/6J mouse assessed as tremor at 10 to 50 mg/kg, ip administered daily for 7 days and measured daily. Type of series: organism-based. Conditions: in vivo, 168 h, dose 10-50 mg/kg, time 7 day.
Series [14] concerns MCF7. In words: Cytotoxicity against human MCF7 cells assessed as cell viability at 30 uM incubated for 72 hrs by SRB assay relative to control. The following applies: read-out: Activity. Type of series: functional.
The subject of series [15] is Hs-578T. Put plainly: Cytotoxicity against human Hs-578T cells assessed as reduction in cell viability at 10 uM incubated for 72 hrs by SRB assay relative to control. Format: functional.

Active and inactive are the calls of the source. The rule behind the calls is not given here.

Take `Brc1ccc2c(c1)-c1cc(-c3ccccc3)nc3c1C(N=CN3c1ccccc1)O2` (stereo not given): the IC50 (usually the midpoint of a concentration-inhibition curve) in [1] amounted to 8.63 µM. Besides, the IC50 at 72 h in series [2] stood at 36.8 µM. For the same molecule, the Ratio IC50 in [3] turned out to be 3.26. Besides, the Activity in [4] is given as 10%; in [7], 12.4%; in [8] it was “Non-Toxic”; in [9], 2.94 g/day; in [10], “Non-Toxic”; in series [11], “Non-Toxic”. Moreover, the results for the Activity entry in series [12], in [13] and in series [15] were “Non-Toxic”, “Non-Toxic” and around 50%, respectively. The outcome in [5] was inactive. In series [6], the outcome was Active. Further, the viability at 30 µM in [14] amounted to 25.9%.
